Measurements reported in article PMC10442743 (Dalton Transactions (Cambridge, England : 2003), 2023).
Like-named read-outs stand apart in the source and are kept apart here.

Assays:
[1] = system: 6-mer dsDNA (DNA, duplex) AGGCAG/CTGCCT; test: ESI tandem mass spectrometry; settings: MilliQ water pH 7, 37 °C, 3:1 mixed; 24 h or 72 h (ESI); non-covalent
[2] = system: 14-mer ssDNA (DNA, single strand) ATACATGGTACATA; test: ESI tandem mass spectrometry; settings: MilliQ water pH 7, 37 °C, 24 h; compound:DNA 3:1 mixed; adduct seen as [Ru(toluene)(PPh3)]2+; non-covalent
[3] = system: ctDNA; test: Circular dichroism / induced circular dichroism with calf thymus DNA; settings: DNA
Protocol: Calf thymus (ct) DNA (Merck®) was used to perform the circular dichroism assay to detect conformational changes in the ctDNA induced by the compounds. CD spectral data was collected on a Chirascan™ V100 (Applied Photophysics) spectropolarimeter equipped with a large area Avalanche photodiodes detector and computer-controlled thermoelectrical cell holder using a 1 cm path length quartz cuvette. CD spectra of ctDNA in the absence and presence of different concentrations of 11Cl were recorded at wavelengths ranging from 320 to 190 nm under constant nitrogen flush at 25 °C. For each CD spectrum, the number of scans was set to 5, and spectral data were collected at 0.1 ms intervals. Additionally, methyl green (MG) and 4′,6-diamidino-2-phenylindole (DAPI), and propidium iodide (PI) were analyzed as minor and major groove binders and as an intercalator, respectively, to help identify the binding mode of 11Cl to DNA. Samples were prepared in 10 mM Tris-HCl buffer (pH 7.6) with 1 mM EDTA. The concentration of ctDNA was fixed at 100 μM (concerning base pairs) and the ctDNA to 11Cl ratio was varied between 0 and 1. The samples were incubated for 24 h at 37 °C and then analyzed in the CD spectropolarimeter.

[4] = system: ct-DNA; settings: cited from earlier work
[5] = system: MCF-7; settings: literature value ref 41; read-out: cytotoxicity (IC50) MCF-7; cited from earlier work
[6] = system: MDA-MB-231; settings: literature value ref 42; read-out: cytotoxicity (IC50) MDA-MB-231; cited from earlier work

SMILES: Cc1ccccc1.[Cl-].[Ru+2].c1ccc(P(c2ccccc2)c2ccccc2)cc1.c1ccc(P(c2ccccc2)c2ccccc2)cc1
- binding [1]: yes
- binding [2]: yes

SMILES: N=C(N)c1ccc(-c2cc3ccc(C(=N)N)cc3[nH]2)cc1 [DAPI]
- CD band 268 nm, intensity change ([3]; 268 nm part of the 268−280 nm band): Hyperchromic
- CD band 280 nm, intensity change ([3]; 280 nm part of the 268−280 nm band): Hypochromic
- CD band 210 nm, intensity change ([3]; 24 h, 37 °C): Hypochromic
- CD band 210 nm, wavelength shift ([3]; 24 h, 37 °C): Red
- CD band 220 nm (hydrogen bonding), intensity change ([3]; 24 h, 37 °C): Hyperchromic
- CD band 220 nm (hydrogen bonding), wavelength shift ([3]; 24 h, 37 °C): Blue shift
- CD band 246 nm (helicity), intensity change ([3]; 24 h, 37 °C): Unchanged
- CD band 246 nm (helicity), wavelength shift ([3]; 24 h, 37 °C): Unchanged
- CD band 268−280 nm (base-pair stacking interactions), wavelength shift ([3]; 24 h, 37 °C): Unchanged
- Kprobe, binding constant of the probe to DNA ([4]; used in eqn (4) ref 92): 5e+06 M⁻¹

SMILES: CN(C)c1ccc(C(=C2C=CC(=[N+](C)C)C=C2)c2ccc([N+](C)(C)C)cc2)cc1.[Cl-].[Cl-] [MG, methyl green]
- CD band 210 nm, intensity change ([3]; 24 h, 37 °C): Hypochromic
- CD band 210 nm, wavelength shift ([3]; 24 h, 37 °C): Blue
- CD band 220 nm (hydrogen bonding), intensity change ([3]; 24 h, 37 °C): Hyperchromic
- CD band 220 nm (hydrogen bonding), wavelength shift ([3]; 24 h, 37 °C): Blue shift
- CD band 246 nm (helicity), intensity change ([3]; 24 h, 37 °C): Hypochromic
- CD band 246 nm (helicity), wavelength shift ([3]; 24 h, 37 °C): Unchanged
- CD band 268−280 nm (base-pair stacking interactions), intensity change ([3]; 24 h, 37 °C): Unchanged
- CD band 268−280 nm (base-pair stacking interactions), wavelength shift ([3]; 24 h, 37 °C): Unchanged
- Kprobe, binding constant of the probe to DNA ([4]; used in eqn (4) ref 91): 900000 M⁻¹

SMILES: N.N.[Cl][Pt][Cl] [cisplatin]
- IC50 [5]: 28 ± 6 µM
- IC50 [6]: 38.7 ± 0.03 µM
